Source: ChEMBL document CHEMBL1122929, “6,7-Dihydro-5-[[(cis-2-hydroxy-trans-3-phenoxycyclopentyl)amino] methyl]-2-methylbenzo[b]thiophen-4(5H)-one: a novel alpha 1-adrenergic receptor antagonist and renal vasodilator” (J Med Chem, 1985)
Active and inactive are the calls of the source. The calls are words filed in the database; no cut-off is given here.

What was measured:
[1] = biological target: T1, Adrenergic receptor alpha-1 (Rattus norvegicus, UniProt P15823+P23944+P43140); assay: Ability to inhibit 50% specific binding of [3H]prazosin radioligand to alpha-1 adrenergic receptor in rat cerebrocortex; type: tissue-based, Cortex
T1 sequence (P15823 whole entry): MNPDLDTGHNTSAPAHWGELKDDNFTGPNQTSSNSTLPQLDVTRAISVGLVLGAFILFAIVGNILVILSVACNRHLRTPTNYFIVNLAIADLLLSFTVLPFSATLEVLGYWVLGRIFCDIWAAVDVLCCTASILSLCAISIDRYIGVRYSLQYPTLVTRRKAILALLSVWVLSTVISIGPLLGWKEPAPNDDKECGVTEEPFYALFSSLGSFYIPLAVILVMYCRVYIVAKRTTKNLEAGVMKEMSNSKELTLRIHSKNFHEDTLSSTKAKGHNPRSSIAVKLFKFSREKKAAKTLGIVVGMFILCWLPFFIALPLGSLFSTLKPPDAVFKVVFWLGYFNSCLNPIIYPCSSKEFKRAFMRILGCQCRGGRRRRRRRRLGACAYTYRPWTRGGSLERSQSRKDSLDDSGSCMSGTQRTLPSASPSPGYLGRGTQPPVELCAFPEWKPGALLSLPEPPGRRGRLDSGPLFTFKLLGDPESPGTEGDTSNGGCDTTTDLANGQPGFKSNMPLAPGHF
T1 sequence (P23944 whole entry): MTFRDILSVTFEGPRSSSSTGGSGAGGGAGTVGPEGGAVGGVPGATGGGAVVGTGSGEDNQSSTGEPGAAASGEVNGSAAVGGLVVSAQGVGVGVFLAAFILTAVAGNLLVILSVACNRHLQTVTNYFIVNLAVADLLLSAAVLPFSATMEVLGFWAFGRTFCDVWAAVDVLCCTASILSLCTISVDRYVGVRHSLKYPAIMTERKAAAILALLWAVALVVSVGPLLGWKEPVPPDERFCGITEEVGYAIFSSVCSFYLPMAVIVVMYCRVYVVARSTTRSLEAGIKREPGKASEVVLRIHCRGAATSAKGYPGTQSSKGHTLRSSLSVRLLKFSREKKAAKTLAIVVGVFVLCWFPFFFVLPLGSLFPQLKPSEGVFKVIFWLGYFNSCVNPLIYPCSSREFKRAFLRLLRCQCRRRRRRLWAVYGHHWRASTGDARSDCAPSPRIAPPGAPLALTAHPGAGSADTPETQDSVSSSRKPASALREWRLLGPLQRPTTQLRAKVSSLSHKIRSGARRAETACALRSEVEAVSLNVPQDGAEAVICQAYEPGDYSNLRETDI
T1 sequence (P43140 whole entry): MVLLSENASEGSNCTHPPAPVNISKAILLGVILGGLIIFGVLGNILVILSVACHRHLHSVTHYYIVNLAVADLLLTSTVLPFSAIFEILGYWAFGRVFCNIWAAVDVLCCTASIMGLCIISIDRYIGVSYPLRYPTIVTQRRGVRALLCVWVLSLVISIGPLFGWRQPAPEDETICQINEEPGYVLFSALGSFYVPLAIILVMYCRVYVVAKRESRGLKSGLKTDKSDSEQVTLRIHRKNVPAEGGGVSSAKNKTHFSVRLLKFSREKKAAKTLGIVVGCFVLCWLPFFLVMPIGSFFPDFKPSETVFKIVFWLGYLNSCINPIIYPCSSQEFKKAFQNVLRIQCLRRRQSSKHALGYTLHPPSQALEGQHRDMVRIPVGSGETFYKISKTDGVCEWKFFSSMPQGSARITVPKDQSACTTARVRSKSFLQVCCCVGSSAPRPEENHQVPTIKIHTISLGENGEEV

[2] = species on record: Canis familiaris; assay: Dose required to reduce blood pressure by 15% (ED15) was calculated.; type: functional; details: Canis lupus familiaris
[3] = system: Rattus norvegicus; assay: Mean arterial blood pressure (MABP) was evaluated in chronically cannulated spontaneously hypertensive rats (SHR) after peroral administration 30 mg/kg of compound; […]; type: functional
[4] = biological target: T2, Adrenergic receptor alpha-2 (Rattus norvegicus, UniProt P22086+P19328+P22909); assay: Ability to inhibit 50% specific binding of [3H]-p-amino clonidine radioligand to alpha-2 adrenergic receptor in rat cerebrocortex; type: tissue-based, Cortex
T2 sequence (P22086 whole entry): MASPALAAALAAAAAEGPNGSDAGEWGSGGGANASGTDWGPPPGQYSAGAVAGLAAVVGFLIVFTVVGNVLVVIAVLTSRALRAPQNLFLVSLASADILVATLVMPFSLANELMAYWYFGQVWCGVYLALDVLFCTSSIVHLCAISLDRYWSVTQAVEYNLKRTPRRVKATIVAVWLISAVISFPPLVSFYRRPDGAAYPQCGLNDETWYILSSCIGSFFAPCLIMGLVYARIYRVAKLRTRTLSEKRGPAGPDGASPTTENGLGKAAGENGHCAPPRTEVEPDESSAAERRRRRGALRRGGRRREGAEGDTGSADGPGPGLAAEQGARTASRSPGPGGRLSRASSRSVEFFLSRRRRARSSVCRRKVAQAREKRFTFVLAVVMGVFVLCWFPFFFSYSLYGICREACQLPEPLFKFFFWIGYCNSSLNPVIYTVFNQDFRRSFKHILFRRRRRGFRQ
T2 sequence (P19328 whole entry): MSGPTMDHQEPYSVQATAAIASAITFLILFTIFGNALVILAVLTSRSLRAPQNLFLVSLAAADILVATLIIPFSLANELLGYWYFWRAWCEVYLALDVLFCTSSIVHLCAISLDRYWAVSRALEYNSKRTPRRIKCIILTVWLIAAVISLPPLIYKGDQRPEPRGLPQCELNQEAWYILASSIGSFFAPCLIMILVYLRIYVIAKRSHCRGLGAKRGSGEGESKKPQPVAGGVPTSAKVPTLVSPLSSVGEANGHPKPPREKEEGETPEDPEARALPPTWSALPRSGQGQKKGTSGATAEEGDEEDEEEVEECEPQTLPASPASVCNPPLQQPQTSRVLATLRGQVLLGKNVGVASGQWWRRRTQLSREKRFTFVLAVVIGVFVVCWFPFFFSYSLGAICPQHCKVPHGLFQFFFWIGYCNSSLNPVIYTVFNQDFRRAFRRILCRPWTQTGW
T2 sequence (P22909 whole entry): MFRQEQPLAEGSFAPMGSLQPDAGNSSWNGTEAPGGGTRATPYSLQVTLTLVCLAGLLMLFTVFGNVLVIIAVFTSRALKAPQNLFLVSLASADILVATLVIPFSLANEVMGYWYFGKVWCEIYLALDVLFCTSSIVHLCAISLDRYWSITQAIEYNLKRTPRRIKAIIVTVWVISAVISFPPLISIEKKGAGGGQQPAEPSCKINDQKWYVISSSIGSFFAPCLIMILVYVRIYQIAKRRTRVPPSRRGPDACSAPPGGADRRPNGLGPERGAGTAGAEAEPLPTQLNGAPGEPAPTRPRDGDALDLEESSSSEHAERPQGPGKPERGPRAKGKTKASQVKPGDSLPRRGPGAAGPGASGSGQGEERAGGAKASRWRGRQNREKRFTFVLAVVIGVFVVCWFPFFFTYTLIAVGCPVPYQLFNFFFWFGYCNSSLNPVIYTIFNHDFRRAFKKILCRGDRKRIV

[5] = biological target: Adrenergic receptor alpha-1 (Oryctolagus cuniculus); assay: pA2 value for phenylephrine antagonist towards at alpha-1 adrenergic receptor was determined in rabbit aorta
[6] = system: Canis familiaris; assay: Mean arterial blood pressure (MABP) was evaluated in anesthetized dog after intravenous administration of 1 mg/kg of compound; type: functional, Canis lupus familiaris
[7] = system: Canis familiaris; assay: Mean arterial blood pressure was determined at cumulative dose of 0.01 mg/kg in anesthetized dogs by intravenous administration after sulpiride pretreatment; type: functional, Canis lupus familiaris
[8] = system: Canis familiaris; assay: Mean arterial blood pressure was determined at cumulative dose of 1 mg/kg in anesthetized dogs by intravenous administration after SCH 23390 pretreatment; type: functional, Canis lupus familiaris
[9] = system: Canis familiaris; assay: Renal blood flow was determined at cumulative dose of 0.01 mg/kg in anesthetized dogs by intravenous administration after sulpiride pretreatment; type: functional, Canis lupus familiaris, Kidney
[10] = system: Canis familiaris; assay: Mean arterial blood pressure was determined at cumulative dose of 0.03 mg/kg in anesthetized dogs by intravenous administration after SCH 23390 pretreatment; type: functional, Canis lupus familiaris
[11] = system: Canis familiaris; assay: Mean arterial blood pressure was determined at cumulative dose of 1 mg/kg in anesthetized dogs by intravenous administration after sulpiride pretreatment; type: functional, Canis lupus familiaris
[12] = system: Canis familiaris; assay: Renal blood flow was determined at cumulative dose of 0.1 mg/kg in anesthetized dogs by intravenous administration after sulpiride pretreatment; type: functional, Canis lupus familiaris, Kidney
[13] = system: Canis familiaris; assay: Mean arterial blood pressure was determined at cumulative dose of 0.1 mg/kg in anesthetized dogs by intravenous administration after sulpiride pretreatment; type: functional, Canis lupus familiaris
[14] = system: Canis familiaris; assay: Renal blood flow was determined at cumulative dose of 0.3 mg/kg in anesthetized dogs by intravenous administration after sulpiride pretreatment; type: functional, Canis lupus familiaris, Kidney
[15] = system: Canis familiaris; assay: Mean arterial blood pressure was determined at cumulative dose of 0.3 mg/kg in anesthetized dogs by intravenous administration after sulpiride pretreatment; type: functional, Canis lupus familiaris
[16] = system: Canis familiaris; assay: Renal blood flow was determined at cumulative dose of 0.03 mg/kg in anesthetized dogs by intravenous administration after sulpiride pretreatment; type: functional, Canis lupus familiaris, Kidney
[17] = system: Canis familiaris; assay: Renal blood flow was determined at cumulative dose of 1 mg/kg in anesthetized dogs by intravenous administration after sulpiride pretreatment; type: functional, Canis lupus familiaris, Kidney
[18] = system: Canis familiaris; assay: Renal blood flow was determined at cumulative dose of 0.1 mg/kg in anesthetized dogs by intravenous administration after SCH 23390 pretreatment; type: functional, Canis lupus familiaris, Kidney
[19] = system: Canis familiaris; assay: Mean arterial blood pressure was determined at cumulative dose of 0.3 mg/kg in anesthetized dogs by intravenous administration after SCH 23390 pretreatment; type: functional, Canis lupus familiaris
[20] = system: Canis familiaris; assay: Mean arterial blood pressure was determined at cumulative dose of 0.03 mg/kg in anesthetized dogs by intravenous administration after sulpiride pretreatment; type: functional, Canis lupus familiaris
[21] = system: Canis familiaris; assay: Renal blood flow was determined at cumulative dose of 0.01 mg/kg in anesthetized dogs by intravenous administration after SCH 23390 pretreatment; type: functional, Canis lupus familiaris, Kidney
[22] = system: Canis familiaris; assay: Renal blood flow was determined at cumulative dose of 0.03 mg/kg in anesthetized dogs by intravenous administration after SCH 23390 pretreatment; type: functional, Canis lupus familiaris, Kidney
[23] = system: Canis familiaris; assay: Renal blood flow was determined at cumulative dose of 0.3 mg/kg in anesthetized dogs by intravenous administration after SCH 23390 pretreatment; type: functional, Canis lupus familiaris, Kidney
[24] = system: Canis familiaris; assay: Renal blood flow was determined at cumulative dose of 1 mg/kg in anesthetized dogs by intravenous administration after SCH 23390 pretreatment; type: functional, Canis lupus familiaris, Kidney
[25] = system: Canis familiaris; assay: Mean arterial blood pressure was determined at cumulative dose of 0.1 mg/kg in anesthetized dogs by intravenous administration after SCH 23390 pretreatment; type: functional, Canis lupus familiaris
[26] = system: Canis familiaris; assay: Mean arterial blood pressure was determined at cumulative dose of 0.01 mg/kg in anesthetized dogs by intravenous administration after SCH 23390 pretreatment; type: functional, Canis lupus familiaris
[27] = species on record: Canis familiaris; assay: Dose required to reduce blood pressure by 15% (ED15) was calculated; type: functional; details: Canis lupus familiaris
[28] = system: Rattus norvegicus; assay: Mean arterial blood pressure (MABP) was evaluated in conscious hypertensive rats by peroral administration of compound at 30 mg/kg; type: functional; details: route oral
[29] = system: Canis familiaris; assay: Mean arterial blood pressure (MABP) was evaluated in anesthetized dog by intravenous administration of compound at 1 mg/kg; type: functional, Canis lupus familiaris

IC50 [1] [µM] | IC50 [4] [µM] | pA2 [5] | Compound | ED15 [2] [mg/kg] | Max delta MABP ([3]; route oral) [mmHg] | Max delta MABP [6] [mmHg] | Max delta MABP [3] | further results
0.09 | > 1 | 7.04 | Cc1cc2c(s1)CCC(CN[C@H]1CC[C@@H](Oc3ccccc3)[C@@H]1O)C2=O (some centres not stated) | – | – | -8 | inactive | ED15 [27]: > 10 mg/kg
0.055 | 0.6 | 7.28 | Cc1cc2c(s1)CCC(CN[C@H]1CC[C@@H](Oc3ccccc3)[C@H]1O)C2=O (some centres not stated) | 3.3 | – | -16 | inactive | –

Further lines, the molecule ahead of its results:

Compound | IC50 [1] [µM] | IC50 [4] [µM] | pA2 [5] | ED15 [2] [mg/kg] | Max delta MABP ([3]; route oral) [mmHg] | Max delta MABP [6] [mmHg] | Max delta MABP [3] | further results
Cc1cc2c(s1)CCC(CN[C@@H]1CC[C@@H](Oc3ccccc3)[C@H]1O)C2=O (some centres not stated) | 0.045 | 0.1 | 7.4 | 0.61 | -34 | -31 | – | –
Cc1cc2c(s1)CCC(CN[C@@H]1CC[C@@H](Oc3ccccc3)[C@@H]1O)C2=O.Cl (some centres not stated) | 0.008 | 0.8 | 8.13 | 0.08 | -70 | -47 | – | Delta MABP [7]: -3%; Delta MABP [8]: -22%; Delta RBF [9]: 6%; Delta MABP [10]: -6%; Delta MABP [11]: -29%; Delta RBF [12]: 9%; Delta MABP [13]: -14%; Delta RBF [14]: 9%; Delta MABP [15]: -21%; Delta RBF [16]: 10%; Delta RBF [17]: -1%; Delta RBF [18]: -1%; Delta MABP [19]: -15%; Delta MABP [20]: -10%; Delta RBF [21]: -2%; Delta RBF [22]: -1%; Delta RBF [23]: -1%; Delta RBF [24]: -6%; Delta MABP [25]: -10%; Delta MABP [26]: -3%
COc1cc2nc(N3CCN(C(=O)c4ccco4)CC3)nc(N)c2cc1OC [PRAZOSIN] | – | – | – | 0.1 | – | – | – | Max delta MABP [28]: -45 mmHg; Max delta MABP [29]: -30 mmHg
